Literature values, collected in patent publication US20110208437A1, “METHOD AND APPARATUS FOR I[…] SAFE AND E[…] REGIMEN” (THE MCLEAN HOSPITAL CORPORATION, priority 2008, published 2011).

Assays:
dopamine reuptake = dopamine reuptake (Homo sapiens, UniProt Q01959)
[1] = clinical trials, adults and children
[2] = oral administration of the same mg/kg dose
[3] = 2.5 mg Focalin same therapeutic benefit as 5.0 mg Ritalin

dopamine reuptake, sequence (Q01959 whole entry): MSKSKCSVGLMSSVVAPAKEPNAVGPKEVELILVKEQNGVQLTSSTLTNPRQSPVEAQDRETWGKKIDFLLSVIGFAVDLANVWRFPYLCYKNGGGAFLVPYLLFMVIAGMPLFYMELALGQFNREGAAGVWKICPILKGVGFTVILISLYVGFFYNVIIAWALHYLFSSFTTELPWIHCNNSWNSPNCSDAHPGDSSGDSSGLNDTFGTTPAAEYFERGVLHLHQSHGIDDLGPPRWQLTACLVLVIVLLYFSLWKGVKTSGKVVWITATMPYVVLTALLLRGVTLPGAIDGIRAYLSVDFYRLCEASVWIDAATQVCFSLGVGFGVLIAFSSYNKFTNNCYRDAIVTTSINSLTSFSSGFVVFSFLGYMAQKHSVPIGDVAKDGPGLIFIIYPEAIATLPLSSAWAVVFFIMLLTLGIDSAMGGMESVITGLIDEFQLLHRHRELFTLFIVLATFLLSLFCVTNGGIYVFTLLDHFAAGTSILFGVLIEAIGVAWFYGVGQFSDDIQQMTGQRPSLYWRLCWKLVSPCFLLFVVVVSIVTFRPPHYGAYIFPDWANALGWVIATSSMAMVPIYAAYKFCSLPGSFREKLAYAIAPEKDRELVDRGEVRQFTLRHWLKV

CC(NC(C)(C)C)C(=O)c1cccc(Cl)c1 (stereo not shown) [Bupropion]
potency as inhibitor of dopamine reuptake relative to norepinephrine reuptake (dopamine reuptake): twice as potent

CNCC[C@@H](Oc1ccccc1C)c1ccccc1 [Atomoxetine]
coverage of symptoms associated with ADHD [1]: 24 h

COC(=O)C(c1ccccc1)C1CCCCN1 (stereo not shown) [IR-MPH, methylphenidate]
differences between individuals in peak blood levels (Cmax) [2]: 2-3 fold

COC(=O)[C@H](c1ccccc1)[C@H]1CCCCN1 [Focalin]
potency relative to methylphenidate [3]: twice as potent
